Reference: patent US20250340561A1, “QUINAZOLINE COMPOUND FOR INDUCING DEGRADATION OF G12D MUTANT KRAS PROTEIN” (Astellas Pharma Inc., priority 2021, published 2025)
Read-outs that look alike come from different tables or passages of the source.

Key:
[1] = test system: phosphorylation of ERK (Thr202/Tyr204); assay: Test Example 2: ERK phosphorylation inhibition action in AsPC-1, Cell ELISA; format: cell-based, human; details: Homo sapiens, ASPC1, 24 h, AsPC-1 cells, 0% = 1 μM trametinib
Experimental: Test Example 2: Evaluation of ERK Phosphorylation Inhibition Action on Human G12D Mutant KRAS-Positive Pancreatic Cancer Line AsPC-1
The ERK phosphorylation inhibition action of test compounds was evaluated by measuring phosphorylation of the 202th threonine (Thr202) and the 204th tyrosine (Tyr204) of ERK located downstream of the KRAS signal by Cell ELISA.
AsPC-1 cells were seeded on a 384-well plate (from Greiner bio-one) at 36 μL/well to give 2.0×10^4 cells per well. As for the cell culture conditions, a RPMI 1640 medium containing 10% fetal bovine serum was used in the presence of 5% CO2 at 37° C.
The next day, the test compounds (6 points having final concentrations in the range of 10 μM to 3.0 nM), trametinib (MEK inhibitor) of a final concentration of 1 μM as a positive control and DMSO, which was the solvent for the test compounds, as a negative control were diluted 100-fold with a fresh medium and were added at 4 μL per well. The cells were then cultured for 24 hours. After culturing, a 30% glyoxal solution (40% glyoxal [from Nacalai Tesque] was diluted with PBS) was quickly added at 30 μL per well, and the plate was allowed to stand for 90 minutes at room temperature to thus immobilize the cells. Then, the plate was centrifuged to remove the supernatant (using a centrifugal dehydrator machine, the supernatant was removed by the same method hereinafter), and 0.1% Triton X-100-containing PBS was added at 20 μL per well. After allowing to stand for 10 minutes at room temperature, the supernatant was removed by centrifugation, and the same operation was further repeated. Next, 0.5% SDS-containing PBS was added at 20 μL per well, and after allowing to stand at room temperature for 30 minutes, the supernatant was removed by centrifugation. Subsequently, a blocking solution (Intercept Blocking Buffer) was added at 20 μL per well, and the plate was allowed to stand for 1 hour at room temperature. The supernatant was removed by centrifugation, and an ERK (Thr202/Tyr204) phosphorylation antibody (Phospho-p44/42 MAPK (Erk 1/2) (Thr202/Tyr204) (D13.14.4E) XP Rabbit mAb; from Cell Signaling Technology) diluted 2,500-fold with a blocking solution was added at 10 or 15 μL per well as a primary antibody. The plate was allowed to stand at 4° C. overnight.
The next day, the plate was centrifuged to remove the supernatant. 0.05% Tween-20-containing PBS was added at 50 μL per well, and the supernatant was removed by centrifugation to thus wash each well. The washing was performed three times in total. After washing, Goat anti-Rabbit IgG H&L (IRDye 800CW) diluted 1,000-fold with a blocking solution was added at […] as a secondary antibody, and the plate was allowed to stand for 1 hour at room temperature. The plate was centrifuged to remove the supernatant, and each well was washed three times with 0.05% Tween-20-containing PBS in the same manner as after the primary antibody reaction. After removing the supernatant by centrifuging the plate, the plate was dried as it was with air at room temperature for 3 hours or more, and the 800-nm fluorescent signals were measured with Aerius.
With the signaling value at the time of addition of DMSO taken as 100% and with the signaling value at the time of addition of 1 μM trametinib taken as 0%, the 50% inhibition values (IC50) were calculated by Sigmoid-Emax model nonlinear regression analysis. The molecular weights of the test compounds were calculated as the molecular weights of the dihydrochloride for Example No. 22, the trihydrochlorides for Example Nos. 2-7, 9-12, 14-18 and 30, the tetrahydrochlorides for Example Nos. 19 and 46, the pentahydrochloride for Example No. 21 and the free forms forming no salt for the remaining Example Nos. The results for some test compounds of the formula (I) are shown in Table 3.

[2] = test system: human G12D mutant KRAS-positive pancreatic cancer line AsPC-1; assay: Test Example 3: non-anchorage-dependent cell growth inhibition, spheroid 3D cell culture; format: cell-based; details: Homo sapiens, ASPC1, 144 h, AsPC-1 spheroid 3D culture, 6 days, CellTiter Glo 2.0
Experimental: Test Example 3: Evaluation of Non-Anchorage-Dependent Cell Growth Inhibition Action on Human G12D Mutant KRAS-Positive Pancreatic Cancer Line AsPC-1
The non-anchorage-dependent cell growth inhibition action of test compounds was evaluated by spheroid 3D cell culture.
AsPC-1 cells were seeded on a low-cell-adhesive round bottom 384-well plate (PrimeSurface: from Sumitomo Bakelite) at 36 μL/well to give 5×10^2 cells per well. The cell culture was performed under the same conditions as in the Test Example 2.
The next day, the test compounds (6 points having final concentrations in the range of 10 μM to 3.0 nM) and DMSO, which was the solvent for the test compounds, as a negative control were diluted 100-fold with a fresh medium and were added at 4 μL per well. After culturing in the presence of […] at 37° C. for 6 days, CellTiter Glo 2.0 (from Promega) was added at 20 μL per well. After stirring with a plate mixer (from FINEPCR) at normal temperature for 1 hour, the luminescent signals were measured with ARVO X3 (from PerkinElmer).
With the signaling value in treatment with DMSO taken as […] and with the signaling value in the medium alone without cells taken as […], the […] inhibition values (IC50) were calculated by Sigmoid-Emax model nonlinear regression analysis. The molecular weights of the test compounds were calculated as the molecular weights of the dihydrochloride for Example No. 22, the trihydrochlorides for Example Nos. 2-7, 9-12, 14-18 and 30, the tetrahydrochlorides for Example Nos. 19 and 46, the pentahydrochloride for Example No. 21 and the free forms forming no salt for the remaining Example Nos. The results for some test compounds of the formula (I) are shown in Table 4.

IC50 ([1]; read-out: IC50) [nM] | IC50 ([2]; read-out: IC50) [nM] | SMILES | IC50 [1] [nM] | IC50 [2] [nM]
 |  | Cc1ncsc1-c1ccc([C@H](CO)NC(=O)[C@@H]2C[C@@H](O)CN2C(=O)[C@H](C(C)C)n2cc(-c3ccc(COc4c(-c5c(C)c(F)cc6[nH]ncc56)c(C5CC5)cc5c(N6C[C@@H]7C[C@H]6CN7)nc(OC6COC6)nc45)cc3)nn2)cc1 [Example 27] | 27 | 103
 |  | Cc1ncsc1-c1ccc([C@H](CO)NC(=O)[C@@H]2C[C@@H](O)CN2C(=O)[C@H](C(C)C)n2cc(-c3ccc(COc4c(-c5c(C)c(F)cc6[nH]ncc56)c(C5CC5)cc5c(N6C[C@@H]7C[C@H]6CN7)nc(O[C@H](C)CN6CCOCC6)nc45)cc3)nn2)cc1 [Example 45] | 11 | 20
 |  | Cc1c(F)cc2[nH]ncc2c1-c1c(C2CC2)cc2c(N3C[C@@H]4C[C@H]3CN4)nc(OC3CCOCC3)nc2c1OCc1ccc(-c2cn([C@H](C(=O)N3C[C@H](O)C[C@H]3C(=O)N[C@@H](CO)c3ccccc3)C(C)C)nn2)cc1 (atropisomer, axis not shown) [Example 14] | 63 | 153
 |  | CCOc1nc(N2C[C@@H]3C[C@H]2CN3)c2cc(C3CC3)c(-c3c(C)c(F)cc4[nH]ncc34)c(OCc3ccc(C(=O)N[C@H](C(=O)N4C[C@H](O)C[C@H]4C(=O)N[C@@H](CO)c4ccc(-c5scnc5C)cc4)C(C)C)cc3)c2n1 [Example 5] | 97 | 169
 |  | COC[C@@H](C)Oc1nc(N2C[C@@H]3C[C@H]2CN3)c2cc(C3CC3)c(-c3c(C)c(F)cc4[nH]ncc34)c(OCc3ccc(-c4cn([C@H](C(=O)N5C[C@H](O)C[C@H]5C(=O)N[C@@H](CO)c5ccc(-c6scnc6C)cc5)C(C)C)nn4)cc3)c2n1 [Example 40] | 7 | 20
 |  | CO[C@@H](C)COc1nc(N2C[C@@H]3C[C@H]2CN3)c2cc(C3CC3)c(-c3c(C)c(F)cc4[nH]ncc34)c(OCc3ccc(-c4cn([C@H](C(=O)N5C[C@H](O)C[C@H]5C(=O)N[C@@H](CO)c5ccc(N6CCOC6=O)cc5)C(C)C)nn4)cc3)c2n1 [Example 59] | 26 | 70
 |  | Cc1ncsc1-c1ccc(CNC(=O)[C@@H]2C[C@@H](O)CN2C(=O)[C@H](C(C)C)n2cc(-c3ccc(COc4c(-c5c(C)c(F)cc6[nH]ncc56)c(C5CC5)cc5c(N6C[C@@H]7C[C@H]6CN7)nc(OC6CCOCC6)nc45)cc3)nn2)cc1 [Example 10] | 26 | 114
 |  | CCc1ccncc1Oc1nc(N2C[C@@H]3C[C@H]2CN3)c2cc(C3CC3)c(-c3c(C)c(F)cc4[nH]ncc34)c(OCc3ccc(-c4cn([C@H](C(=O)N5C[C@H](O)C[C@H]5C(=O)N[C@@H](CO)c5ccc(-c6scnc6C)cc5)C(C)C)nn4)cc3)c2n1 [Example 25] | 15 | 66
 |  | Cc1ncsc1-c1ccc([C@H](CO)NC(=O)[C@@H]2C[C@@H](O)CN2C(=O)[C@H](C(C)C)n2cc(-c3ccc(COc4c(-c5c(C)c(F)cc6[nH]ncc56)c(C5CC5)cc5c(N6C[C@@H]7C[C@H]6CN7)nc(OC[C@H](C)N6CCCC6)nc45)cc3)nn2)cc1 [Example 64] | 80 | 245
 |  | CO[C@H](C)COc1nc(N2C[C@@H]3C[C@H]2CN3)c2cc(C3CC3)c(-c3c(C)c(F)cc4[nH]ncc34)c(OCc3ccc(-c4cn([C@H](C(=O)N5C[C@H](O)C[C@H]5C(=O)N[C@@H](CO)c5ccc(-c6scnc6C)cc5)C(C)C)nn4)cc3)c2n1 [Example 47] | 18 | 22
 |  | Cc1c(F)cc2[nH]ncc2c1-c1c(C2CC2)cc2c(N3C[C@@H]4C[C@H]3CN4)nc(OC3CCOCC3)nc2c1OCc1ccc(-c2cn([C@H](C(=O)N3C[C@H](O)C[C@H]3C(=O)N[C@@H](CO)c3cccc(F)c3)C(C)C)nn2)cc1 [Example 63] | 72 | 133
758 | 975 | Cc1c(F)cc2[nH]ncc2c1-c1c(C2CC2)cc2c(N3C[C@@H]4C[C@H]3CN4)nc(OC3CCOCC3)nc2c1OCc1ccc(-c2cn([C@H](C(=O)N3C[C@H](O)C[C@H]3C(=O)N[C@@H](CO)c3cccc(S(C)(=O)=O)c3)C(C)C)nn2)cc1 [Example 67] |  | 
 |  | CC[C@@H](C)Oc1nc(N2C[C@@H]3C[C@H]2CN3)c2cc(C3CC3)c(-c3c(C)c(F)cc4[nH]ncc34)c(OCc3ccc(-c4cn([C@H](C(=O)N5C[C@H](O)C[C@H]5C(=O)N[C@@H](CO)c5ccc(-c6scnc6C)cc5)C(C)C)nn4)cc3)c2n1 [Example 43] | 11 | 16
 |  | CO[C@H](C)[C@@H](C)Oc1nc(N2C[C@@H]3C[C@H]2CN3)c2cc(C3CC3)c(-c3c(C)c(F)cc4[nH]ncc34)c(OCc3ccc(-c4cn([C@H](C(=O)N5C[C@H](O)C[C@H]5C(=O)N[C@@H](CO)c5ccc(-c6scnc6C)cc5)C(C)C)nn4)cc3)c2n1 [Example 39] | 6 | 18
51 | 138 | Cc1ncsc1-c1ccc([C@H](CN(C)C)NC(=O)[C@@H]2C[C@@H](O)CN2C(=O)[C@H](C(C)C)n2cc(-c3ccc(COc4c(-c5c(C)c(F)cc6[nH]ncc56)c(C5CC5)cc5c(N6C[C@@H]7C[C@H]6CN7)nc(OC6CCOCC6)nc45)cc3)nn2)cc1 [Example 19] |  | 
 |  | Cc1ncsc1-c1ccc([C@H](CO)NC(=O)[C@@H]2C[C@@H](O)CN2C(=O)[C@H](C(C)C)n2cc(-c3ccc(COc4c(-c5c(C)c(F)cc6[nH]ncc56)c(C5CC5)cc5c(N6C[C@@H]7C[C@H]6CN7)nc(OCC6(CO)CC6)nc45)cc3)nn2)cc1 [Example 61] | 24 | 61
38 | 51 | CO[C@@H](C)COc1nc(N2C[C@@H]3C[C@H]2CN3)c2cc(C3CC3)c(-c3c(C)c(F)cc4[nH]ncc34)c(OCc3ccc(-c4cn([C@H](C(=O)N5C[C@H](O)C[C@H]5C(=O)N[C@@H](CO)c5ccc(-n6ccnc6C)cc5)C(C)C)nn4)cc3)c2n1 [Example 71] |  | 
 |  | Cc1ncsc1-c1ccc([C@H](CO)NC(=O)[C@@H]2C[C@@H](O)CN2C(=O)[C@H](C(C)C)n2cc(-c3ccc(COc4c(-c5c(C)c(F)cc6[nH]ncc56)c(C5CC5)cc5c(N6C[C@@H]7C[C@H]6CN7)nc(OCC6(CO)CCOCC6)nc45)cc3)nn2)cc1 (atropisomer, axis not shown) [Example 36] | 31 | 24
 |  | Cc1ncsc1-c1ccc([C@H](CO)NC(=O)[C@@H]2C[C@@H](O)CN2C(=O)[C@@H](NC(=O)c2ccc(COc3c(-c4c(C)c(F)cc5[nH]ncc45)c(C4CC4)cc4c(N5C[C@@H]6C[C@H]5CN6)nc(OC5CCOCC5)nc34)cc2)C(C)C)cc1 [Example 3] | 62 | 108
